Laboratory results: patent publication US10757937B2, “Sulfonamides that activate ABA receptors” (The Regents of the University of California, priority 2014, dated 2020)
Like-named read-outs stand apart in the source and are kept apart here.

What was measured:
[1] = biological target: T1, PYL4 (Arabidopsis thaliana, UniProt O80920); test: receptor-mediated PP2C (HAB1) inhibition in vitro assay; type: biochemical; details: compound at 25 μM; control without agonist = 100%
T1 construct: 6X-His; made in house; host or cells: E. coli BL21[DE3]pLysS
T1 sequence (O80920 1-207): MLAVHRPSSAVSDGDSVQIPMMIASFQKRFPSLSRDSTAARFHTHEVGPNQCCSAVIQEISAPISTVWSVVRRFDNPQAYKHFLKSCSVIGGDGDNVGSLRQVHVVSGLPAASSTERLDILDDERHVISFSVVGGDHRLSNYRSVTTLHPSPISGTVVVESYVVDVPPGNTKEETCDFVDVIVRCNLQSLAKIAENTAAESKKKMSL
T1 sequence (Q9CAJ0 23-511 partner): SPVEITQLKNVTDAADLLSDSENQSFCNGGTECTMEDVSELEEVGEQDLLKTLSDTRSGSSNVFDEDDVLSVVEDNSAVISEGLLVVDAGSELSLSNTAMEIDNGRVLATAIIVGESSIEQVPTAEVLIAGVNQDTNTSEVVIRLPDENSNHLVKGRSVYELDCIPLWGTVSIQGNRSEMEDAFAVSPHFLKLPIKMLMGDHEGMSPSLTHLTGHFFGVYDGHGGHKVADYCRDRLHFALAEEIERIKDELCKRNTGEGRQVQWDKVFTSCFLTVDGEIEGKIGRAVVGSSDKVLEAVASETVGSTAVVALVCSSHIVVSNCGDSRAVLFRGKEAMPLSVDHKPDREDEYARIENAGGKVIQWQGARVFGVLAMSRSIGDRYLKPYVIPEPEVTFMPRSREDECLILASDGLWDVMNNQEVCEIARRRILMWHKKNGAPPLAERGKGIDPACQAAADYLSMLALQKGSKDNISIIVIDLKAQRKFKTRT
Method: (§1) A family of 62 structurally related N-acyl sulfonamides (Tables I-V) were tested for ABA agonist activity using multiple receptor-mediated PP2C inhibition in vitro assays (Park et al., 2009). […] The constructs utilized for protein expression have been previously described (Okamoto et al. 2013). For constructs encoding 6X-His-fusion proteins (all receptors except PYL11), the coding sequences were of the receptors were cloned in the vector pET28, expressed in BL21[DE3]pLysS E. coli host cells at 18° C. overnight, and subsequently purified from sonicated lysates using Ni-NTA agarose (Qiagen, USA), according to the manufacturer's instructions. PYL11 was constructed as a maltose binding protein fusion in the vector pMAL-c, expressed in BL21┌DE3┐pLysS host cells and purified using amylose resin (New England Biolabs) as described by the manufacturer. Recombinant GST-HAB1 was expressed and purified as described previously (Park et al., 2009). PP2C activity assays were conducted using the fluorogenic phosphatase substrate 4-methylumbelliferyl-phosphate. Recombinant receptors and HAB1 were used to examine ligand-induced PP2C inactivation in response to multiple test compounds. Enzyme inhibition assays were conducted using the following assay conditions: 50 nM GST-PP2C, 100 mM Tris-OAc (pH 7.9), 100 mM NaCl, 1 mM MnCl2, 1% β-mercaptoethanol. […] Because of this, the ratio of each receptor used in the PP2C-inhibitions assays was established empirically as the minimum fold-excess of receptor required to elicit maximal PP2C inhibition at a saturating ABA concentration (10 μM).
(§2) Based on this criterion, we used a ratio of 2:1 receptor in the assays described herein.
(§3) Using the above assay conditions, compounds were tested at 25 μM for agonist activity on PYL4, PYL5, PYL8 and PYL9. […] Consequently, a subset of the compounds was tested at multiple concentrations against 11 receptors so that IC50 values and receptor selectivity profiles could be examined. […] Thus, the N-acylsulfonamide agonists disclosed are selective for monomeric receptors.
(§4) Additional compounds were tested for biological activity following the procedures of Example 1 with minor modifications.
(§5) For these in vitro receptor assays, the compounds listed were tested in in vitro PP2C inhibition assays with 50 uM of the test compound except for ABA (10 uM). IC50s were calculated from dose curves, but only for selected compounds.

[2] = biological target: T2, PYL5 (Arabidopsis thaliana, UniProt Q9FLB1); test: as above; type: biochemical; details: compound at 25 μM; control without agonist = 100%
T2 construct: 6X-His; made in house; host or cells: E. coli BL21[DE3]pLysS
T2 sequence (Q9FLB1 1-203): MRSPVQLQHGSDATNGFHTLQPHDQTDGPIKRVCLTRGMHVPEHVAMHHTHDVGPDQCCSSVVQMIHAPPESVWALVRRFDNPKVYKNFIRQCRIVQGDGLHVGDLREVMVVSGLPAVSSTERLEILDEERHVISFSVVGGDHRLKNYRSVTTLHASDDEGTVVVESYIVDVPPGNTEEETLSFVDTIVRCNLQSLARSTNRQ
T2 sequence (Q9CAJ0 23-511 partner): T1 sequence (Q9CAJ0 23-511 partner)
Method: as §1, §2, §3, §4, §5

[3] = biological target: T3, PYL8 (Arabidopsis thaliana, UniProt Q9FGM1); test: as above; type: biochemical; details: compound at 25 μM; control without agonist = 100%
T3 construct: 6X-His; made in house; host or cells: E. coli BL21[DE3]pLysS
T3 sequence (Q9FGM1 1-188): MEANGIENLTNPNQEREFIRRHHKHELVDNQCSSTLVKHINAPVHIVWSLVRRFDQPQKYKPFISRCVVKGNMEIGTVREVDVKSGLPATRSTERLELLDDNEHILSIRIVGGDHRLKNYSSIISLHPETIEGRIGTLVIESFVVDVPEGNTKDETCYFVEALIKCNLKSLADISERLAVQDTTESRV
T3 sequence (Q9CAJ0 23-511 partner): T1 sequence (Q9CAJ0 23-511 partner)
Method: as §1, §2, §3, §4, §5

[4] = biological target: T4, PYL9 (Arabidopsis thaliana, UniProt Q84MC7); test: as above; type: biochemical; details: compound at 25 μM; control without agonist = 100%
T4 construct: 6X-His; made in house; host or cells: E. coli BL21[DE3]pLysS
T4 sequence (Q84MC7 1-187): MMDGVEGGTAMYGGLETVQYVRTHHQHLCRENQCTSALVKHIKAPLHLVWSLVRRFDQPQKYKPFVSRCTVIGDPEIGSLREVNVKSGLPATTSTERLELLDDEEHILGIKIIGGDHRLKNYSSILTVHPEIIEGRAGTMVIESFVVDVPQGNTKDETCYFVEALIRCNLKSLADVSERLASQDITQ
T4 sequence (Q9CAJ0 23-511 partner): T1 sequence (Q9CAJ0 23-511 partner)
Method: as §1, §2, §3, §4, §5

[5] = test system: Arabidopsis seed germination and hypocotyl growth; test: Arabidopsis seed germination and hypocotyl growth; type: in vivo; details: − = none; for Hypocotyl Growth Inhibition: lowest concentration that inhibited hypocotyl growth in wells where seeds germinated; for minimal effective concentration: Table VIII, tested at 10 or 50 μM, lowest inhibiting concentration
Method: We germinated seeds from wild type on ½× strength Murashige and Skoog salts growth medium containing either 10 or 50 μM for all 62 compounds as well as 1 μM (+)-ABA and mock controls. […] To investigate if the any of the compounds are sufficient to control vegetative ABA responses, we treated three week old Arabidopsis plants with aqueous solutions containing 0.02% Silwet and either 50 μM of selected N-acylsulfonamides, 50 μM ABA or 0.1% DMSO (the carrier solvent for the compounds tested). The leaf temperatures were subsequently examined using a thermal imaging camera 24 hours after treatment. It is well known that ABA-induced guard cell closure reduces transpiration, which leads to increases in leaf temperatures. It has been estimated that a 1° C. increase in leaf temperature correlates with a decrease in transpiration rates by approximately 50% (Sirault et al., 2009). Since guard cell aperture is the primary determinant of transpiration rates, thermal imaging is a useful way to indirectly infer relative transpiration rates and, indirectly, relative degrees of guard cell opening at the whole plant level.
as §4
For the germination inhibition experiment, the compounds were tested at 10 and 50 uM. The amounts shown are the lowest of the two concentrations that either inhibited germination or hypocotyl growth in wells where seeds germinated.
For the germination test, the compounds were tested at 1, 5, 10, 25 and 50 uM. The amounts shown are the lowest of the concentrations that either inhibited germination or hypocotyl growth in the wells where seeds germinated.

[6] = Germination Inhibition II, tested at 10 and 50 uM
[7] = read-out: Hypocotyl Growth Inhibition

Row | SMILES | PP2C Activity (25 μm) PYL4 [1] | PP2C Activity (25 μm) PYL5 [2] | PP2C Activity (25 μm) PYL8 [3] | PP2C Activity (25 μm) PYL9 [4] | Hypocotyl Growth Inhibition [5, 6] | minimal effective concentration [5, 7] | Germination Inhibition ([5]; Germination Inhibition II, tested at 10 and 50 uM, lowest of the two concentrations that inhibited) | minimal effective concentration ([5]; ABA at 1 μM, read-out: Germination Inhibition) | remaining activity at 25 µM [1] | remaining activity at 25 µM [2] | remaining activity at 25 µM [3] | remaining activity at 25 µM [4]
1 | CC(C)(C(=O)NS(=O)(=O)Cc1ccccc1C#N)c1ccccc1 [Compound 1] | 96% | 106% | 89% | 83% | 50 µM | 50 µM |  |  |  |  |  | 
2 | CC(C)(C(=O)NS(=O)(=O)Cc1ccc(C#N)cc1)c1ccc(Br)cc1 [Compound 2] | 89% | 23% | 69% | 47% | 10 µM | 10 µM | 50 µM | 50 µM |  |  |  | 
3 | CC(C)(C(=O)NS(=O)(=O)Cc1ccc(F)cc1)c1ccccc1 [Compound 4] | 97% | 106% | 59% | 36% | 50 µM | 50 µM |  |  |  |  |  | 
4 | CC(C)(C(=O)NS(=O)(=O)Cc1ccc(C#N)cc1)c1ccc(C(F)(F)F)cc1 [Compound 11] | 93% | 44% | 62% | 58% |  |  |  |  |  |  |  | 
5 | CC(C)COc1ccc(C(C)(C)C(=O)NS(=O)(=O)Cc2ccc(C#N)cc2)cc1 [Compound 14] | 97% | 103% | 108% | 108% |  |  |  |  |  |  |  | 
6 | CCc1ccc(C(C)(C)C(=O)NS(=O)(=O)Cc2ccc(C#N)cc2)cc1 [Compound 20] | 95% | 88% | 104% | 98% |  |  |  |  |  |  |  | 
7 | COc1ccc(C(C)(C)C(=O)NS(=O)(=O)Cc2ccc(C#N)cc2)cc1OC [Compound 21] | 89% | 89% | 98% | 102% |  |  |  |  |  |  |  | 
8 | N#Cc1ccc(CS(=O)(=O)NC(=O)C2(c3ccc(Br)cc3)CCC2)cc1 [Compound 31] | 97% | 77% | 80% | 74% |  |  |  |  |  |  |  | 
9 | Cc1cc(C)cc(C2(C(=O)NS(=O)(=O)Cc3ccc(C#N)cc3)CC2)c1 [Compound 36] | 91% | 34% | 98% | 94% |  |  |  |  |  |  |  | 
10 | CC(C)(C)c1ccc(C2(C(=O)NS(=O)(=O)Cc3ccc(C#N)cc3)CC2)cc1 [Compound 40] | 92% | 101% | 106% | 103% |  |  |  |  |  |  |  | 
11 | N#Cc1ccc(CS(=O)(=O)NC(=O)C2(c3ccc(C(F)(F)F)cc3)CC2)cc1 [Compound 45] | 93% | 30% | 74% | 53% |  |  |  |  |  |  |  | 
12 | N#Cc1ccc(CS(=O)(=O)NC(=O)C2(c3ccccc3F)CC2)cc1 [Compound 47] | 95% | 28% | 86% | 75% |  |  |  |  |  |  |  | 
13 | CCOc1ccc(C2(C(=O)NS(=O)(=O)Cc3ccc(C#N)cc3)CC2)cc1 [Compound 52] | 94% | 99% | 91% | 98% |  |  |  |  |  |  |  | 
14 | CC(C)(C(=O)NS(=O)(=O)Cc1ccc2cccnc2c1)c1ccccc1 [Compound 55] | 96% | 95% | 72% | 49% |  |  |  |  |  |  |  | 
15 | CC(=O)N1CCC(C(=O)NS(=O)(=O)Cc2ccc(C#N)cc2)(c2ccccc2)CC1 [Compound 56] | 94% | 105% | 106% | 108% |  |  |  |  |  |  |  | 
16 | N#Cc1ccc(CS(=O)(=O)NC(=O)C2(c3cccc(F)c3)CCOCC2)cc1 [Compound 57] | 91% | 100% | 56% | 39% |  |  |  |  |  |  |  | 
17 | N#Cc1ccc(CS(=O)(=O)NC(=O)C2(c3cccc(Cl)c3)CCOCC2)cc1 [Compound 58] | 96% | 83% | 84% | 83% |  |  |  |  |  |  |  | 
18 | N#Cc1ccc(CS(=O)(=O)NC(=O)C2(c3ccc(C(F)(F)F)cc3)CCOCC2)cc1 [Compound 59] | 92% | 65% | 97% | 98% |  |  |  |  |  |  |  | 
19 | N#Cc1ccc(CS(=O)(=O)NC(=O)C2(c3ccccc3)CCN(S(=O)(=O)c3ccccc3)CC2)cc1 [Compound 60] | 90% | 70% | 101% | 101% |  |  |  |  |  |  |  | 
20 | O=C(NS(=O)(=O)Cc1cccc2cccnc12)C1(c2ccccc2)CC1 [Compound 62] |  |  |  |  |  |  |  |  | 98% | 103% | 100% | 100%
